{
  "source": "patent US20050165057A1",
  "about": "“Novel piperidine derivative” (priority 2002, published 2005)",
  "key": {"ACAT [1]": {"tested_on": "ACAT", "assay": "Assay of ACAT inhibitory activity using Caco-2 cells", "type": "cell-based, human", "details": "concentration of compound: 500 nM", "description": "1. Assay of ACAT Inhibitory Activity Using Caco-2 Cells Derived from Human Colon Adenocarcinoma:\nThe measurement of ACAT inhibitory activity using Caco-2 cells was carried out by a modified method of that disclosed in the literature (J. Lipid. Research, 28, 1057-1066, 1987, Jpn. J. Pharmacol., 68, 191-199, 1995), using radioactive [1-^3H]oleic acid as a substrate, and the enzymatic activity was calculated from the radioactivity of the resultant labeled cholesterolyl oleate."}, "ACAT [2]": {"target": "T1, ACAT (Rattus norvegicus, UniProt O70536)", "T1 construct": "The rat peritoneal-derived macrophage was prepared according to the method disclosed in the literature; endogenous in cells; host or cells: rat peritoneal macrophages (primary cells)", "T1 sequence (O70536 1-545)": "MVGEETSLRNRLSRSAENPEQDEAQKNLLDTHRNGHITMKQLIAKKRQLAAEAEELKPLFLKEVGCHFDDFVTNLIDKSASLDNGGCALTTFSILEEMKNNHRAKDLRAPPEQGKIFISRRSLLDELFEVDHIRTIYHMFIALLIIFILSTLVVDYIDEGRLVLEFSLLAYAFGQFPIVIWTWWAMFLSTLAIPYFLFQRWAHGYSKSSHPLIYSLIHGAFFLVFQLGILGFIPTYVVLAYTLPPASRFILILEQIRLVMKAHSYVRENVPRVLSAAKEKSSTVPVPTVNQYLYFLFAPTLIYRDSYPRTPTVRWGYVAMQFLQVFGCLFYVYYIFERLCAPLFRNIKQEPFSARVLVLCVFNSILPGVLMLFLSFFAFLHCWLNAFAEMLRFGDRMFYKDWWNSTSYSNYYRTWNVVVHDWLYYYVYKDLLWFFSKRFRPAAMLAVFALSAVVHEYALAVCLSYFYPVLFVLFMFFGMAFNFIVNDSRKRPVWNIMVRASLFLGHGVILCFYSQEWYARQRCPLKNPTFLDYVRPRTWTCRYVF", "assay": "Assay of ACAT inhibitory activity in a macrophage derived from rat peritoneal cavity", "type": "cell-based", "details": "concentration of compound: 500 nM", "description": "2. Assay of ACAT Inhibitory Activity in a Macrophage Derived from Rat Peritoneal Cavity:\nThe rat peritoneal-derived macrophage was prepared according to the method disclosed in the literature: Biochimica et Biophysica Acta, 1126, 73-80, 1992. The ACAT activity was determined by a modified method of the method disclosed in the above literature: Biochimica et Biophysica Acta, 1126, 73-80, 1992, using radioactive [9, 10-^3H]oleic acid and exogenous cholesterol contained in the liposome which was re-constituted according to the method disclosed in the literature: Biochimica et Biophysica Acta, 1213, 127-134, 1994, and calculated from the radioactivity of the labeled cholesterolyl oleate."}},
  "data": [
    {"compound": "COc1cccc(C2(CNC(=O)Nc3c(C(C)C)cc(N)cc3C(C)C)CCN(c3cccc(C)c3)CC2)c1", "note": "[Example 12-2, N-{[1-(3-methylphenyl)-4-(3-methoxyphenyl)piperidin-4-yl]methyl}-N′-(4-amino-2,6-diisopropylphenyl)urea]", "values": [
      {"measurement": "ACAT inhibitory rate (%)", "setting": "ACAT [1]", "result": 59, "unit": "%"},
      {"measurement": "ACAT inhibitory rate (%)", "setting": "ACAT [2]", "result": 99, "unit": "%"}
    ]},
    {"compound": "CC(C)c1cc(N)cc(C(C)C)c1NC(=O)NCC1(c2cccc(OCCCNC(=O)CC(F)(F)F)c2)CCN(c2ccccc2)CC1", "note": "[Example 11-1, N-{(1-phenyl-4-{3-[3-(2,2,2-trifluoroethyl)carbonylaminopropoxy]phenyl}piperidin-4-yl)methyl}-N′-(4-amino-2,6-diisopropylphenyl)urea]", "values": [
      {"measurement": "ACAT inhibitory rate (%)", "setting": "ACAT [1]", "result": 57, "unit": "%"},
      {"measurement": "ACAT inhibitory rate (%)", "setting": "ACAT [2]", "result": 99, "unit": "%"}
    ]},
    {"compound": "COc1cccc(C2(CNC(=O)Nc3c(C(C)C)cc(N)cc3C(C)C)CCN(c3cccc(F)c3)CC2)c1", "note": "[Example 12-3, N-{[1-(3-fluorophenyl)-4-(3-methoxyphenyl)piperidin-4-yl]methyl}-N′-(4-amino-2,6-diisopropylphenyl)urea]", "values": [
      {"measurement": "ACAT inhibitory rate (%)", "setting": "ACAT [1]", "result": 63, "unit": "%"},
      {"measurement": "ACAT inhibitory rate (%)", "setting": "ACAT [2]", "result": 99, "unit": "%"}
    ]}
  ]
}
